Data from patent publication US20080262097A1, “Formulations” (priority 2005, published 2008).
In brackets after ≈: the same amount, converted by molar mass. Where two headings read alike, the source gives them in different places.

What was measured:
S. aureus ATCC 29213 [1] = test: MIC assay; format: cell-based, Staphylococcus aureus
Description: 1. Staphylococcus aureus—the principal staphylococcal test micro-organism used in these studies was Staphylococcus aureus ATCC 29213. This strain is the one recommended for QC/QA purposes in Minimum Inhibitory Concentration (MIC) assays by the US Clinical and Laboratory Standards Institute (formerly the NCCLS), an FDA-recognised body. […] The staphylococci and enterococci were cultured and maintained on Mueller-Hinton Medium (agar and broth) at pH 7.2; they were incubated aerobically at 37° C. for 24 hours. This is a standard international method for quantitatively assessing the antimicrobial activity of a compound in a liquid medium. The method used a 96-well microtitre plate, capable of holding about 200 μl of liquid per well. […] The culture media were as described above for the relevant test organisms. The wells were inoculated with a liquid suspension of freshly grown micro-organism and incubated under the conditions described above. After incubation, the microtitre plate was examined visually (with the aid of a light box) for cell pellets in and/or opaque wells, which would indicate microbial growth. The MIC value was recorded as the lowest concentration of test compound required to inhibit microbial growth, ie, the lowest concentration for which the liquid in the well remained clear. The assays were conducted in duplicate and included both negative (culture medium only) and positive (culture medium, diluting solvent and inoculum) controls.

S. aureus ATCC 29213 [2] = test: MBC assay; format: cell-based, Staphylococcus aureus
Description: 1. Staphylococcus aureus—the principal staphylococcal test micro-organism used in these studies was Staphylococcus aureus ATCC 29213. This strain is the one recommended for QC/QA purposes in Minimum Inhibitory Concentration (MIC) assays by the US Clinical and Laboratory Standards Institute (formerly the NCCLS), an FDA-recognised body. […] The staphylococci and enterococci were cultured and maintained on Mueller-Hinton Medium (agar and broth) at pH 7.2; they were incubated aerobically at 37° C. for 24 hours. This assay, normally carried out after an MIC assay, determines the minimum concentration of a compound that is lethal to the micro-organism being tested. […] These samples were then individually sub-cultured on non-selective agar medium, under the incubation conditions described above. Following incubation they were examined visually for bacterial growth.

S. aureus ATCC 29213 [3] = test: Disc diffusion assay (DDA); format: cell-based, Staphylococcus aureus
From the text: 1. Staphylococcus aureus—the principal staphylococcal test micro-organism used in these studies was Staphylococcus aureus ATCC 29213. This strain is the one recommended for QC/QA purposes in Minimum Inhibitory Concentration (MIC) assays by the US Clinical and Laboratory Standards Institute (formerly the NCCLS), an FDA-recognised body. S. aureus ATCC 29213 is susceptible to beta-lactam antibiotics such as methicillin and to many other antibiotics in clinical use worldwide today. The staphylococci and enterococci were cultured and maintained on Mueller-Hinton Medium (agar and broth) at pH 7.2; they were incubated aerobically at 37° C. for 24 hours. A sterile paper disc was impregnated with a sample of the test compound and a minimum of 30 minutes allowed for the solvents to evaporate as far as possible. The disc was then placed on an agar plate onto which the test micro-organism had been inoculated. The plate was then incubated under the conditions described above, following which it was examined visually for signs of bacterial growth. If the test compound had antimicrobial activity, a circular zone of no growth would be obtained around the disc. The diameter of this zone of “inhibition” was measured using a ProtoCOL™ automated zone sizer (Synbiosis, Cambridge, UK). In general, a greater diameter and/or area of the zone of inhibition indicates a greater antimicrobial activity in the relevant test compound, although other factors such as test compound mobility through the agar gel may also influence the result. […] The exceptions were the thymoquinone assays, in which only 50 μg of the benzoquinone was used.

P. acnes NCTC 737 [4] = test: MIC assay; format: cell-based, Propionibacterium acnes
Description: (§1) 2. Propionibacterium spp.—the principal propionibacterial strain used in these studies was Propionibacterium acnes NCTC 737. This is the type strain of the genus; it is fully susceptible to antibiotics.
(§2) The Propionibacterium spp organisms were cultured and maintained on Wilkins-Chalgren Anaerobe Medium (agar and broth) at pH 6.0; cultures were incubated anaerobically at 37° C. for 72 hours.
This is a standard international method for quantitatively assessing the antimicrobial activity of a compound in a liquid medium. The method used a 96-well microtitre plate, capable of holding about 200 μl of liquid per well. […] The culture media were as described above for the relevant test organisms.
The wells were inoculated with a liquid suspension of freshly grown micro-organism and incubated under the conditions described above. After incubation, the microtitre plate was examined visually (with the aid of a light box) for cell pellets in and/or opaque wells, which would indicate microbial growth. The MIC value was recorded as the lowest concentration of test compound required to inhibit microbial growth, ie, the lowest concentration for which the liquid in the well remained clear.
The assays were conducted in duplicate and included both negative (culture medium only) and positive (culture medium, diluting solvent and inoculum) controls.

P. acnes NCTC 737 [5] = test: MBC assay; format: cell-based, Propionibacterium acnes
Description: as §1, §2
This assay, normally carried out after an MIC assay, determines the minimum concentration of a compound that is lethal to the micro-organism being tested.
These samples were then individually sub-cultured on non-selective agar medium, under the incubation conditions described above. Following incubation they were examined visually for bacterial growth.

P. acnes NCTC 737 [6] = test: Disc diffusion assay (DDA); format: cell-based, Propionibacterium acnes; conditions: 200 μg per disc
Description: 2. Propionibacterium spp.—the principal propionibacterial strain used in these studies was Propionibacterium acnes NCTC 737.
as §2
A sterile paper disc was impregnated with a sample of the test compound and a minimum of 30 minutes allowed for the solvents to evaporate as far as possible. The disc was then placed on an agar plate onto which the test micro-organism had been inoculated. The plate was then incubated under the conditions described above, following which it was examined visually for signs of bacterial growth. […] The diameter of this zone of “inhibition” was measured using a ProtoCOL™ automated zone sizer (Synbiosis, Cambridge, UK).
The area of the zone of inhibition was calculated from the measured zone diameter (D) using the formula π(D/2)^2.
For all (S)DDA assays, 200 μg of each compound was loaded onto each disc.

[7] = S. aureus ATCC 29213, Table 5 (Example 5)
[8] = Staphylococcus aureus, ATCC29213, S. aureus ATCC 29213, Table 1 (Example 1), read-out: MIC
[9] = Staphylococcus aureus, ATCC29213, S. aureus ATCC 29213, Table 1 (Example 1), read-out: MBC
[10] = Table 1, zone diameter, 200 μg per disc (thymoquinone 50 μg)
[11] = Table 6 (Example 5), zone diameter, 200 μg per disc
[12] = Cutibacterium acnes, NCTC737, P. acnes NCTC 737 (resistance None), Table 9 (Example 8)
[13] = Cutibacterium acnes, NCTC737, P. acnes NCTC 737, Table 7 (Example 6)
[14] = Table 10 (Example 8), zone diameter
[15] = Cutibacterium acnes, NCTC737, P. acnes NCTC 737, Table 7 (Example 6), read-out: MIC
[16] = Cutibacterium acnes, NCTC737, P. acnes NCTC 737, Table 7 (Example 6), read-out: MBC
[17] = S. aureus ATCC 29213, Table 1 (Example 1)
[18] = P. acnes NCTC 737, Table 7 (Example 6)

Molecule `O=C(OOC(=O)c1ccccc1)c1ccccc1` [benzoyl peroxide] has an MIC (S. aureus ATCC 29213 [1]; [7]) of 250 µg/mL (≈ 1030 µM), an MIC (S. aureus ATCC 29213 [1]; [8]) of 250 µg/mL (≈ 1030 µM) and an MBC (S. aureus ATCC 29213 [2]; [7]) of 250 µg/mL (≈ 1030 µM). The MBC (S. aureus ATCC 29213 [2]; [9]) was 250 µg/mL (≈ 1030 µM), the DDA (S. aureus ATCC 29213 [3]; [10]) was 11.03 mm and the DDA (S. aureus ATCC 29213 [3]; [11]) was 9.61 mm. It also gave an MIC (P. acnes NCTC 737 [4]; [12]) of 15.6 µg/mL (≈ 64.4 µM), an MIC (P. acnes NCTC 737 [4]; [13]) of 31.2 µg/mL (≈ 129 µM) and an MBC (P. acnes NCTC 737 [5]; [12]) of 31.2 µg/mL (≈ 129 µM). For the same molecule, the MBC (P. acnes NCTC 737 [5]; [13]) was 62.5 µg/mL (≈ 258 µM), the DDA (P. acnes NCTC 737 [6]; Table 7, zone diameter) was 24.25 mm and the DDA (P. acnes NCTC 737 [6]; [14]) was 19.25 (±0.18) mm.
With `CC(C)(C)c1cc(O)ccc1O` [TBHQ, t-butyl hydroquinone] the MIC (S. aureus ATCC 29213 [1]; [7]) was 7.8 µg/mL (≈ 46.9 µM), the MIC (S. aureus ATCC 29213 [1]; Staphylococcus aureus, ATCC29213) was 7.8 µg/mL (≈ 46.9 µM) and the MBC (S. aureus ATCC 29213 [2]; Staphylococcus aureus, ATCC29213, S. aureus ATCC 29213, Table 5 (Example 5)) was 15.6 µg/mL (≈ 93.9 µM). The MBC (S. aureus ATCC 29213 [2]; Staphylococcus aureus, ATCC29213, S. aureus ATCC 29213, Table 1 (Example 1)) was 7.8 µg/mL (≈ 46.9 µM), the DDA (S. aureus ATCC 29213 [3]; [10]) was 41.77 mm and the DDA (S. aureus ATCC 29213 [3]; [11]) was 46.79 mm. The MIC (P. acnes NCTC 737 [4]; [12]) was 7.8 µg/mL (≈ 46.9 µM), the MIC (P. acnes NCTC 737 [4]; [13]) was 7.8 µg/mL (≈ 46.9 µM) and the MBC (P. acnes NCTC 737 [5]; [12]) was 15.6 µg/mL (≈ 93.9 µM). The MBC (P. acnes NCTC 737 [5]; [13]) was 15.6 µg/mL (≈ 93.9 µM), the DDA (P. acnes NCTC 737 [6]; Table 7, zone diameter) was 9.95 mm and the DDA (P. acnes NCTC 737 [6]; [14]) was 8.65 (±0.31) mm. For the same molecule, the DDA (P. acnes NCTC 737 [6]; Table 11 (Example 9), mean of three replicates) was 15.0 mm.
In the case of `O=C1C=CC(=O)C=C1` [p-benzoquinone], the DDA (S. aureus ATCC 29213 [3]; [10]) was 29.34 mm, the MIC (P. acnes NCTC 737 [4]; [15]) was 62.5 µg/mL (≈ 578 µM) and the MBC (P. acnes NCTC 737 [5]; [16]) was 62.5 µg/mL (≈ 578 µM). It also gave a DDA (P. acnes NCTC 737 [6]; Table 7, zone diameter) of 24.87 mm.
In the case of `Cc1c(O)ccc(O)c1C` [2,3-dimethyl-p-hydroquinone], the MIC (S. aureus ATCC 29213 [1]; [17]) was 7.8 µg/mL (≈ 56.5 µM), the MBC (S. aureus ATCC 29213 [2]; [17]) was 7.8 µg/mL (≈ 56.5 µM) and the DDA (S. aureus ATCC 29213 [3]; [10]) was 33.41 mm. It also gave an MIC (P. acnes NCTC 737 [4]; [18]) of 7.8 µg/mL (≈ 56.5 µM), an MBC (P. acnes NCTC 737 [5]; [18]) of 15.6 µg/mL (≈ 113 µM) and a DDA (P. acnes NCTC 737 [6]; Table 7, zone diameter) of 18.75 mm.
Molecule `CC1=CC(=O)C(C(C)C)=CC1=O` [thymoquinone, 2-iso-propyl-5-methyl-p-benzoquinone] has an MIC (S. aureus ATCC 29213 [1]; [8]) of 7.8 µg/mL (≈ 47.5 µM), an MBC (S. aureus ATCC 29213 [2]; [9]) of 15.6 µg/mL (≈ 95 µM) and a DDA (S. aureus ATCC 29213 [3]; [10]) of 15.64 mm. The MIC (P. acnes NCTC 737 [4]; [15]) was 15.6 µg/mL (≈ 95 µM), the MBC (P. acnes NCTC 737 [5]; [16]) was 31.2 µg/mL (≈ 190 µM) and the DDA (P. acnes NCTC 737 [6]; Table 7, zone diameter) was 27.46 mm.
For `Oc1ccc(O)cc1` [p-hydroquinone], the MIC (S. aureus ATCC 29213 [1]; [17]) was 62.5 µg/mL (≈ 568 µM), the MBC (S. aureus ATCC 29213 [2]; [17]) was 62.5 µg/mL (≈ 568 µM) and the DDA (S. aureus ATCC 29213 [3]; [10]) was 18.94 mm. The MIC (P. acnes NCTC 737 [4]; [18]) was greater than 250 µg/mL, the MBC (P. acnes NCTC 737 [5]; [18]) was greater than 250 µg/mL and the DDA (P. acnes NCTC 737 [6]; Table 7, zone diameter) was 0.0 mm.
Molecule `CCc1cc(O)ccc1O` [2-ethyl-p-hydroquinone] has an MIC (S. aureus ATCC 29213 [1]; [17]) of 7.8 µg/mL (≈ 56.5 µM), an MBC (S. aureus ATCC 29213 [2]; [17]) of 15.6 µg/mL (≈ 113 µM) and a DDA (S. aureus ATCC 29213 [3]; [10]) of 21.06 mm. It also gave an MIC (P. acnes NCTC 737 [4]; [18]) of 7.8 µg/mL (≈ 56.5 µM), an MBC (P. acnes NCTC 737 [5]; [18]) of 31.25 µg/mL (≈ 226 µM) and a DDA (P. acnes NCTC 737 [6]; Table 7, zone diameter) of 9.90 mm.
